Data: ChEMBL document CHEMBL1201862, “PubChem BioAssay data set” (2004)
Each block holds one compound with its values, some of them ahead of it. Calls of active or inactive are those of the source.

Key:
Type in all cases: functional
Caspase-3 = molecular target: T1, Caspase-3 (Homo sapiens, UniProt P42574);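 note: Dose-response selectivity test against caspase-3 for candidate inhibitors of sentrin-specific proteases (SENPs)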
T1 sequence (P42574 whole entry): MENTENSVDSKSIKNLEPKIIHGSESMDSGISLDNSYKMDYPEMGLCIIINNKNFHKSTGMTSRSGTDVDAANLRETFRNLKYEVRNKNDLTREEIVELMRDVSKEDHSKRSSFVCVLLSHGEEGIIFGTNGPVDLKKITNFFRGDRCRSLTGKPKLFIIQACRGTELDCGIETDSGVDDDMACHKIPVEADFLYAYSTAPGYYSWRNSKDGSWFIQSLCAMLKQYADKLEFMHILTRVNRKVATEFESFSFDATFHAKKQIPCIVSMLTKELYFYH

[1] = molecular target: T2, Sentrin-specific protease 7 (Homo sapiens, UniProt Q9BQF6);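 note: Luminescence-based dose-response confirmation of ultra-high-throughput screening hits, measuring inhibition of SENP7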
T2 sequence (Q9BQF6 whole entry): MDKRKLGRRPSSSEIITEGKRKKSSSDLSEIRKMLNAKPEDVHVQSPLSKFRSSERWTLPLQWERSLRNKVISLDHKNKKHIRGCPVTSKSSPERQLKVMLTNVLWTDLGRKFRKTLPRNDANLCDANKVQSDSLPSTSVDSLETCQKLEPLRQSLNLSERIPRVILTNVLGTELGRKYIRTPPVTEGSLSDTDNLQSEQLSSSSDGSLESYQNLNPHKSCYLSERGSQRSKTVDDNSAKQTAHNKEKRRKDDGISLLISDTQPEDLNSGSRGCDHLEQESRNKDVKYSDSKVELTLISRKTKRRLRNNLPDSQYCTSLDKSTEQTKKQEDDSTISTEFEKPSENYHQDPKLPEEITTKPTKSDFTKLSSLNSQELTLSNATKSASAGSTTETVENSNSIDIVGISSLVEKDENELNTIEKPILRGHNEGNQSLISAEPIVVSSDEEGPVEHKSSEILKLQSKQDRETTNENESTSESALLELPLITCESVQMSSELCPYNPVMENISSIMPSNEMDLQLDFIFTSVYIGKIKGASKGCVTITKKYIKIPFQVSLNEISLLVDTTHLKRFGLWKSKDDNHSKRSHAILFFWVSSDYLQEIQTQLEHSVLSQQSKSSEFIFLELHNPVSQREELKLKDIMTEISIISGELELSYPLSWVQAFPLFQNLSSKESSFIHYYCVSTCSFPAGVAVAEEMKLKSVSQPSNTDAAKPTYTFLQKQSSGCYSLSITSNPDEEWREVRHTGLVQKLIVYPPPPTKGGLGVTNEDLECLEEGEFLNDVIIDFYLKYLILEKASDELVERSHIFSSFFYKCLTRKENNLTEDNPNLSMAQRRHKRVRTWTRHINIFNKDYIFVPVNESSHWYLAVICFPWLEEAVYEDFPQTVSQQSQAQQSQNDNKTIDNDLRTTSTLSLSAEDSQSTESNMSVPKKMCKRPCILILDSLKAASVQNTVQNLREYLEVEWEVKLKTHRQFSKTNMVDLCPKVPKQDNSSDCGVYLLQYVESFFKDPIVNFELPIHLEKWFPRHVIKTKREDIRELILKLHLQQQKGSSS

Activin receptor type-1 = Activin receptor type-1 (Homo sapiens, UniProt Q04771); experiment: Navigating the Kinome. Panel member name: ACVR1
Activated CDC42 kinase 1 = Activated CDC42 kinase 1 (Homo sapiens, UniProt Q07912); experiment: Navigating the Kinome. Panel member name: ACK1
[2] = molecular target: G protein-coupled receptor kinase 5 (Homo sapiens, UniProt P34947); experiment: Navigating the Kinome. Panel member name: GPRK5
[3] = molecular target: Dual specificity tyrosine-phosphorylation-regulated kinase 1A (Homo sapiens, UniProt Q13627);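 note: measured against DYRK1A as one member of a broad kinome profiling panel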
[4] = molecular target: Leukocyte tyrosine kinase receptor (Homo sapiens, UniProt P29376); experiment: Navigating the Kinome. Panel member name: LTK
[5] = molecular target: Mitogen-activated protein kinase 14 (Homo sapiens, UniProt Q16539);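 note: part of a kinome-wide panel, MAPK14 entry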
[6] = molecular target: cGMP-dependent protein kinase 1 (Homo sapiens, UniProt Q13976);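 note: value from a kinome panel screen with PRKG1 as the panel member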
[7] = molecular target: Tyrosine-protein kinase SYK (Homo sapiens, UniProt P43405)
[8] = molecular target: Casein kinase II subunit alpha (Homo sapiens, UniProt P68400)
[9] = molecular target: Casein kinase I isoform alpha (Homo sapiens, UniProt P48729)
[10] = molecular target: Ribosomal protein S6 kinase alpha-5 (Homo sapiens, UniProt O75582)
[11] = molecular target: Serine/threonine-protein kinase N2 (Homo sapiens, UniProt Q16513)
[12] = molecular target: Homeodomain-interacting protein kinase 2 (Homo sapiens, UniProt Q9H2X6);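 note: measured within a kinome-wide kinase profiling panel, HIPK2 being one panel member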
[13] = molecular target: MAP/microtubule affinity-regulating kinase 3 (Homo sapiens, UniProt P27448);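 note: MARK3 affinity measured as one member of a kinome panel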
Insulin receptor = Insulin receptor (Homo sapiens, UniProt P06213);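 note: insulin receptor kinase tested as one member of a kinome-wide kinase panel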
[14] = molecular target: Mitogen-activated protein kinase kinase kinase 20 (Homo sapiens, UniProt Q9NYL2)
[15] = molecular target: Non-receptor tyrosine-protein kinase TYK2 (Homo sapiens, UniProt P29597)
[16] = molecular target: Proto-oncogene tyrosine-protein kinase Src (Homo sapiens, UniProt P12931);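 note: SRC entry within a kinome-wide kinase profiling panel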
[17] = molecular target: MAP kinase-activated protein kinase 3 (Homo sapiens, UniProt Q16644);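 note: value comes from a kinome-wide profiling panel in which MAPKAPK3 is one of the panel members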
[18] = molecular target: Protein kinase C iota type (Homo sapiens, UniProt P41743);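 note: measured within a kinome-wide kinase panel, PRKCI as panel member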
[19] = molecular target: Protein-tyrosine kinase 6 (Homo sapiens, UniProt Q13882)
[20] = molecular target: Cyclin-dependent kinase 1 (Homo sapiens, UniProt P06493);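 note: Kinome-wide panel profiling, with the target listed as panel member CDC2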
[21] = molecular target: 3-phosphoinositide-dependent protein kinase 1 (Homo sapiens, UniProt O15530);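 note: value comes from the Navigating the Kinome panel, PDPK1 member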
[22] = molecular target: Serine/threonine-protein kinase PLK1 (Homo sapiens, UniProt P53350);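 note: PLK1 measured as one member of a kinome-wide profiling panel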
[23] = molecular target: Receptor tyrosine-protein kinase erbB-4 (Homo sapiens, UniProt Q15303);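 note: ERBB4 member of a kinome-wide kinase profiling panel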
[24] = molecular target: Mitogen-activated protein kinase 12 (Homo sapiens, UniProt P53778);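 note: measured as one member of a kinome-wide kinase profiling panel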
[25] = molecular target: Tyrosine-protein kinase receptor UFO (Homo sapiens, UniProt P30530)

Sequence of Ribosomal protein S6 kinase alpha-5 (O75582 whole entry): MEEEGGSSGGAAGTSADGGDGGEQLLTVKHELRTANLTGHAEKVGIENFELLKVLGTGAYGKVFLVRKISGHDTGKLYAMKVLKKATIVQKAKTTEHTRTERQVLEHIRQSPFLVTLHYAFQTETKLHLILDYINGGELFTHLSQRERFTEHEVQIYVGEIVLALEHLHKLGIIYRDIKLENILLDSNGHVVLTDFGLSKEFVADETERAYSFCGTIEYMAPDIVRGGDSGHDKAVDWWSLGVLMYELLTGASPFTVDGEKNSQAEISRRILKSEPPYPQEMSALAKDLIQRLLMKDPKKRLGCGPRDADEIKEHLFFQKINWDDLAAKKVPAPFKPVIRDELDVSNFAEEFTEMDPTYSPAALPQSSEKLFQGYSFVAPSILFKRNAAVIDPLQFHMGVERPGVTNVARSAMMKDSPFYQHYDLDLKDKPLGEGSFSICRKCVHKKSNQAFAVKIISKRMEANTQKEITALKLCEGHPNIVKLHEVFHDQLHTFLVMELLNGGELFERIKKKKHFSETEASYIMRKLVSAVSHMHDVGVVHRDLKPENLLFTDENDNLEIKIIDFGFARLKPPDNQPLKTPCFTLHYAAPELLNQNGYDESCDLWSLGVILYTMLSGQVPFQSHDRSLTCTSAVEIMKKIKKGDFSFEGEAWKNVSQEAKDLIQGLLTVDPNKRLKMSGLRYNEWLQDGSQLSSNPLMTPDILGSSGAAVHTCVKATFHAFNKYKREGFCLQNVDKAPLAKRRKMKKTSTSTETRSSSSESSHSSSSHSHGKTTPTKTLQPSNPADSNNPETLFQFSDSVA
Sequence of Serine/threonine-protein kinase N2 (Q16513 whole entry): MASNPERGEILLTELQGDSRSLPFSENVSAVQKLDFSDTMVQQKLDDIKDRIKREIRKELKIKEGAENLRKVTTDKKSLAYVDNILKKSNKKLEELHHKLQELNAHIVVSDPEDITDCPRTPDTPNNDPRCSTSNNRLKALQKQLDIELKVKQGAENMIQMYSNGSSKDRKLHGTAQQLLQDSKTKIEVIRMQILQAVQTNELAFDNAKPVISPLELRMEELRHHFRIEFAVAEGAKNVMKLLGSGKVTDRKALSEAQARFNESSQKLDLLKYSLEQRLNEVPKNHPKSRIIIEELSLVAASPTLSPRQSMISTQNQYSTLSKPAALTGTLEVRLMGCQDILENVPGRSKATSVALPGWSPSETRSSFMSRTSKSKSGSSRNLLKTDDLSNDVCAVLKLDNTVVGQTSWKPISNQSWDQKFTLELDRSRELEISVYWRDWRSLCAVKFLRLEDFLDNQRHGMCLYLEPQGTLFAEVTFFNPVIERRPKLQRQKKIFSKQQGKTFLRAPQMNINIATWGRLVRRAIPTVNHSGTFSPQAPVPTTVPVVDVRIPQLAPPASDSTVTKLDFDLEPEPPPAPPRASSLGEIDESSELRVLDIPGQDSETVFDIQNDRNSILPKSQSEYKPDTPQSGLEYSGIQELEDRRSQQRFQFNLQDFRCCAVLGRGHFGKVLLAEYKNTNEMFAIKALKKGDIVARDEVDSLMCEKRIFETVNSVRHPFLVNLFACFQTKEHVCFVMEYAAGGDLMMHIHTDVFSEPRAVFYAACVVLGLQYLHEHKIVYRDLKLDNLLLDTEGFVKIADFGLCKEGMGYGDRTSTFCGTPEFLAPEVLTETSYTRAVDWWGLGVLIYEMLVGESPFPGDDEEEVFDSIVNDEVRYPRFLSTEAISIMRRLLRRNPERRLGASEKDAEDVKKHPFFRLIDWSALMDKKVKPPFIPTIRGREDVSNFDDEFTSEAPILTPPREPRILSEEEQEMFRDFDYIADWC
Sequence of Casein kinase I isoform alpha (P48729 whole entry, canonical isoform): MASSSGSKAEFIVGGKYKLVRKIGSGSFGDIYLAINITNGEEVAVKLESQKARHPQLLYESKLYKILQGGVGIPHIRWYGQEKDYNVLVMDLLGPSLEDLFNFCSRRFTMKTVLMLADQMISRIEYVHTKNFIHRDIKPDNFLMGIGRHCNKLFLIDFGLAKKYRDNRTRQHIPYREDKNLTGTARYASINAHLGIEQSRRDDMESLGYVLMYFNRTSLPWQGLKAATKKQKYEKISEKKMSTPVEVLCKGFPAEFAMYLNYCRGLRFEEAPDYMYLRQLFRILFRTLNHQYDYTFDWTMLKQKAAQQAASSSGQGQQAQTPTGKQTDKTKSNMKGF
Sequence of Protein-tyrosine kinase 6 (Q13882 whole entry): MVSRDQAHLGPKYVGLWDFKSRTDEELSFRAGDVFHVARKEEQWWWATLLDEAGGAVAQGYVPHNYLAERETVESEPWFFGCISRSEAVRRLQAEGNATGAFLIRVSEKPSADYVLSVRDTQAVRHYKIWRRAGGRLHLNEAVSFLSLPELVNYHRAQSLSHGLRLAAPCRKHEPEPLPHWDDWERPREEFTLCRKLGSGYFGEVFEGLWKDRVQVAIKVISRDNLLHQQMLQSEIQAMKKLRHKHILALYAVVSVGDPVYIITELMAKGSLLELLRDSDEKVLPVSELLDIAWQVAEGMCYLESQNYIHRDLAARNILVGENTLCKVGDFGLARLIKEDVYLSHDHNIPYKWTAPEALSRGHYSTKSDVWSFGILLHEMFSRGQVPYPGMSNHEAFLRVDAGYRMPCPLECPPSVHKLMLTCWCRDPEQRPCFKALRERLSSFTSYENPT
Sequence of Mitogen-activated protein kinase 14 (Q16539 whole entry): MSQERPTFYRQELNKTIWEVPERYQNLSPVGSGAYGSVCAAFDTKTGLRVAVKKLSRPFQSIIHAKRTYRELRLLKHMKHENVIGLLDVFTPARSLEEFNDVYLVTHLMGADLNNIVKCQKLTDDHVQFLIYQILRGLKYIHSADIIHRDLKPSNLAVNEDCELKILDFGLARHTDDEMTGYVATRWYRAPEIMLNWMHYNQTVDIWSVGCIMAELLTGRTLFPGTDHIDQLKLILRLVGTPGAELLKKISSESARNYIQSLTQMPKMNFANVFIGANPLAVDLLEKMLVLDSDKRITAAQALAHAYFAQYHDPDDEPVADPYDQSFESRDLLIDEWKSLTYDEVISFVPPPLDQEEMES
Sequence of Mitogen-activated protein kinase kinase kinase 20 (Q9NYL2 whole entry): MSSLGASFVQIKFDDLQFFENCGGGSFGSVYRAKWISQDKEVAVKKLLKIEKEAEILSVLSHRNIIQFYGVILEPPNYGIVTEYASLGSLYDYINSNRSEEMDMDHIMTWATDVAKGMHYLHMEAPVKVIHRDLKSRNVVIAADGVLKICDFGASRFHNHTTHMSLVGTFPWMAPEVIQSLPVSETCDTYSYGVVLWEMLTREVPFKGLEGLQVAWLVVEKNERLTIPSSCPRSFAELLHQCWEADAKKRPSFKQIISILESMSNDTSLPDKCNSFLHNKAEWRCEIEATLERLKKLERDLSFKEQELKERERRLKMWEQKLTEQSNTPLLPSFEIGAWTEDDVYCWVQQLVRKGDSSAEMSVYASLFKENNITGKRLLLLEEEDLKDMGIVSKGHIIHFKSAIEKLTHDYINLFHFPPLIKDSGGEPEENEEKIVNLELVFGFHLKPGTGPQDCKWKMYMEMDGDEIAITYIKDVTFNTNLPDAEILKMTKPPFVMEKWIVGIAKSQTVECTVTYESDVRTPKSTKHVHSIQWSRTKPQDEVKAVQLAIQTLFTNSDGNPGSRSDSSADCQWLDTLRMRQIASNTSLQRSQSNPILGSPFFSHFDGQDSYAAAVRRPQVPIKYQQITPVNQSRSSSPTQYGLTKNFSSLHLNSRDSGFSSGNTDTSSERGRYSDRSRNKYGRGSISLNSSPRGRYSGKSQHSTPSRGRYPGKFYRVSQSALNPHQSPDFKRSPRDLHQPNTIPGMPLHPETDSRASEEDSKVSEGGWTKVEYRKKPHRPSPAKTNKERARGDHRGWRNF
Sequence of Activated CDC42 kinase 1 (Q07912 whole entry): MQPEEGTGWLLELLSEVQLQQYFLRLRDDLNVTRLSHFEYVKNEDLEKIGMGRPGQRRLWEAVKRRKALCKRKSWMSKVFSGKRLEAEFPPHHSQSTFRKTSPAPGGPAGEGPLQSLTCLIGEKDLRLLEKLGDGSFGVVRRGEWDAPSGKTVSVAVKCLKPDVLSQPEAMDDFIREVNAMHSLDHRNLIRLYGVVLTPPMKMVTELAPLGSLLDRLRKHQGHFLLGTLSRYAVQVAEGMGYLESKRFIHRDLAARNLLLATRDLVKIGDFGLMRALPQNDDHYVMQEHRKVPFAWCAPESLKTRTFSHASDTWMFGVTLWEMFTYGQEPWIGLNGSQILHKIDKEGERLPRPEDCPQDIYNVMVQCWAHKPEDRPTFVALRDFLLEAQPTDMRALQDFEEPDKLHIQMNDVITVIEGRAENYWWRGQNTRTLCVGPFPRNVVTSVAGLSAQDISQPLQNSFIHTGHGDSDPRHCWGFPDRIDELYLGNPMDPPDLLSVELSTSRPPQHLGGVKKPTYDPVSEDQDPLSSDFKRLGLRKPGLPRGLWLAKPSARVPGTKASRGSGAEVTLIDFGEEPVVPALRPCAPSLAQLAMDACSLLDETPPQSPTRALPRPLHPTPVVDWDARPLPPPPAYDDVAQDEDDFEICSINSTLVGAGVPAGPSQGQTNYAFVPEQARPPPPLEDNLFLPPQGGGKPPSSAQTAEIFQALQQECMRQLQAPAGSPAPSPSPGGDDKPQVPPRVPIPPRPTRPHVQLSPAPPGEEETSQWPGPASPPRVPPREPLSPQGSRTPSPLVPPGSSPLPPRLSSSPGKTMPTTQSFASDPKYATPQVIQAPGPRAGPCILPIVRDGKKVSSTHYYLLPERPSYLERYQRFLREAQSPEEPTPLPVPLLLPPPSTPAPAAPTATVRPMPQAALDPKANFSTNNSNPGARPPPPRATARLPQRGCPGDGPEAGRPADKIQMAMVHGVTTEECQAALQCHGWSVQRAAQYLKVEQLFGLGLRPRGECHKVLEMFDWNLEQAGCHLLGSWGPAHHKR

IC50 (Caspase-3): 26.6 µM (active)
IC50 [1]: 5.78 µM (active)
SMILES: COc1ccc(-n2c(NC(=O)c3ccco3)c(C#N)c3nc4ccccc4nc32)cc1

Ki (Activin receptor type-1): > 3.98 µM (inactive)
Ki (Activated CDC42 kinase 1): > 3.98 µM (inactive)
Ki [2]: 3.16 µM (active)
Ki [3]: > 2 µM (inactive)
Ki [4]: > 2.51 µM (inactive)
Ki [5]: > 3.98 µM (inactive)
SMILES: [2H]C([2H])([2H])Oc1cccc(C(C)NC(=O)c2sc(-c3ccncc3)nc2C)c1 (centres undefined)

Ki [6]: 0.00794 µM (active)
Ki [7]: > 1.58 µM (inactive)
Ki [8]: > 6.31 µM (inactive)
Ki [9]: 0.316 µM (active)
Ki [10]: 0.00126 µM (active)
Ki [11]: 0.02 µM (active)
Ki [12]: 0.126 µM (active)
Ki [13]: 0.316 µM (active)
Ki (Insulin receptor): 2.51 µM (active)
Ki [14]: 7.94 µM (active)
Ki [15]: > 2 µM (inactive)
Ki [16]: > 2 µM (inactive)
Ki [17]: > 10 µM (inactive)
Ki [18]: 1 µM (active)
Ki [19]: > 2.51 µM (inactive)
Ki [20]: 0.0501 µM (active)
Ki [21]: 2 µM (active)
Ki [22]: > 7.94 µM (inactive)
Ki [23]: > 3.98 µM (inactive)
Ki [24]: 0.398 µM (active)
Ki [25]: 0.2 µM (active)
SMILES: Cc1n[nH]c2ccc(-c3cncc(OCC(N)Cc4ccc(Cl)c(Cl)c4)c3)cc12 (centres undefined)
